Data set [1] concerns Staphylococcus aureus. Conditions: cited from earlier work.
The subject of data set [2] is Enterococcus faecalis. Particulars: cited from earlier work.
Data set [3] has as its system Streptococci group A. Particulars: cited from earlier work.
In data set [4] the test system is Streptococci pneumoniae. Particulars: cited from earlier work.
The nature of data set [5]: Stability of active agent in the dissolution medium. Type of data set: physicochemical. Particulars: 37° C. The procedure:
Determination of Stability of active Agent in the Dissolution Medium
Following 1, 2, 4, 6, 8 and 24 hrs the absorption profile of the drug between 200 nm and 300 nm was determined and compared with the absorption profile of the solutions before storage.

Data set [6] concerns Haemophilus influenza. Particulars: cited from earlier work.

Consider 1 molecule from US6399086B1, “Pharmaceutical preparations for the controlled release of beta-lactam antibiotics” (Yissum Research Development Company of the Hebrew …, priority 1997, dated 2002).

Molecules are shown by their SMILES.

For the molecule `CC1(C)S[C@@H]2[C@H](NC(=O)[C@H](N)c3ccc(O)cc3)C(=O)N2[C@H]1C(=O)O` [Amoxicillin, amoxicillin trihydrate], the MIC is 0.1 µg/mL in data set [1]; 0.5 µg/mL in data set [2]; 0.01 µg/mL in data set [3]; 0.02 µg/mL in data set [4]; 0.25 µg/mL in data set [6]. Moreover, the Stability in solution result was “deterioration occurred” in data set [5] (pH=1.2, after 1hr); “stable” in data set [5] (pH=2, after 6 hrs); “stable” in data set [5] (pH=6.8, after 24 hrs); “stable” in data set [5] (pH=7.4, after 24 hrs).
